Tests used:
[1] = system: Tyrosine-protein kinase ABL1 (Homo sapiens), P00519 [F317L]; assay: Selectivity interaction (KinomeScan (DiscoverX)) EUB0000607a ABL1; settings: at 10 µM
[2] = target: T1, Mitogen-activated protein kinase kinase kinase kinase 3 (Homo sapiens) (UniProt Q8IVH8); assay: Selectivity interaction (KinomeScan (DiscoverX)) EUB0000045b MAP4K3
T1 sequence (whole entry): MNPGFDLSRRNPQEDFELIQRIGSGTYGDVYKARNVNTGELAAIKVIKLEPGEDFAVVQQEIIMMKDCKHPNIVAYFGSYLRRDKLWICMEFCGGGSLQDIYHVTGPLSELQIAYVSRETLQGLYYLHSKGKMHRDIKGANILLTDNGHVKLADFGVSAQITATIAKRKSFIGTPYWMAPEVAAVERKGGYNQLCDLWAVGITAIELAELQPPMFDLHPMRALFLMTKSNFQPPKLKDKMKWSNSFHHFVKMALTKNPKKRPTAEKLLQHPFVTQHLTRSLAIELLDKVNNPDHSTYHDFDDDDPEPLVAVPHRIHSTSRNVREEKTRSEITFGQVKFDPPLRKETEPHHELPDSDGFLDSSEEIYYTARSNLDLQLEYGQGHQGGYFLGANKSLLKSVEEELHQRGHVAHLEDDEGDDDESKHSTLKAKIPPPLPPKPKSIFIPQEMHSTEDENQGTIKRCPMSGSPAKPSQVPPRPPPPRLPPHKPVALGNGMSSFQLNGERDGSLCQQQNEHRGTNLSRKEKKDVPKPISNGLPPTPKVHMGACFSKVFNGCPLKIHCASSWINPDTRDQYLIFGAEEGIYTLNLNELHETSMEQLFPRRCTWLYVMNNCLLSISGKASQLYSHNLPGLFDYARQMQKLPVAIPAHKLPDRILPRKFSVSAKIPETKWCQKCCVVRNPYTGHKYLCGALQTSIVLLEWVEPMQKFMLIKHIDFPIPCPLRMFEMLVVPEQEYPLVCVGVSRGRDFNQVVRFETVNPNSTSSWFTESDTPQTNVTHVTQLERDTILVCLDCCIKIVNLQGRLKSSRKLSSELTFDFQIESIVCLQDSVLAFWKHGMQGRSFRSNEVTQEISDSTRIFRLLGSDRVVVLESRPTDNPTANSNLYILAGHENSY

[3] = target: 4-aminobutyrate aminotransferase, mitochondrial (Homo sapiens, UniProt P80404); assay: Selectivity interaction (GPCR panel (PDSP screen)) EUB0001079a ABAT; settings: at 10 µM
[4] = target: T2, Serine/threonine-protein kinase DCLK2 (Homo sapiens) (UniProt Q8N568); assay: Selectivity interaction (KinomeScan (DiscoverX)) EUB0000229b DCLK2; settings: at 10 µM
T2 sequence (whole entry): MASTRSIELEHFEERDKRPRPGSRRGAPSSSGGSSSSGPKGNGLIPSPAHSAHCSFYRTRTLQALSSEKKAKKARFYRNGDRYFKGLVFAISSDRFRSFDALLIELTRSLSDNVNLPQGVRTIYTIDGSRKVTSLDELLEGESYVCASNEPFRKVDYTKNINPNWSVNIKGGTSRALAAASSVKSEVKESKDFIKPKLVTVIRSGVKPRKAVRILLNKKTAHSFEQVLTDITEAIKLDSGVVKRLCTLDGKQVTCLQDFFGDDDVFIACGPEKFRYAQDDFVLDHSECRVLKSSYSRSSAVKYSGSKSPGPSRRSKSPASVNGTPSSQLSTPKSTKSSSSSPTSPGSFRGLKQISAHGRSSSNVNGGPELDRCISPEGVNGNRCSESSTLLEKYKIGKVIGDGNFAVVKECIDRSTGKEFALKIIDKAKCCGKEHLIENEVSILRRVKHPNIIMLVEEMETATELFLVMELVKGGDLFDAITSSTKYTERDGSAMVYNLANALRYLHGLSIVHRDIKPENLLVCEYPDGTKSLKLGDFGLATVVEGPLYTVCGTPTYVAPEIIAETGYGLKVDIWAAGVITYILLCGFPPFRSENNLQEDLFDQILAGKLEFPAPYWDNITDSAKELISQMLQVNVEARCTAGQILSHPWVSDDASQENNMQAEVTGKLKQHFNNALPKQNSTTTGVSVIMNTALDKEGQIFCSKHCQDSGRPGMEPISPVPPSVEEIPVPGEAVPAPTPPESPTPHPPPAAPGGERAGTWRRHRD

[5] = target: T3, Serine/threonine-protein kinase LATS2 (Homo sapiens) (UniProt Q9NRM7); settings: at 10 µM
T3 sequence (whole entry): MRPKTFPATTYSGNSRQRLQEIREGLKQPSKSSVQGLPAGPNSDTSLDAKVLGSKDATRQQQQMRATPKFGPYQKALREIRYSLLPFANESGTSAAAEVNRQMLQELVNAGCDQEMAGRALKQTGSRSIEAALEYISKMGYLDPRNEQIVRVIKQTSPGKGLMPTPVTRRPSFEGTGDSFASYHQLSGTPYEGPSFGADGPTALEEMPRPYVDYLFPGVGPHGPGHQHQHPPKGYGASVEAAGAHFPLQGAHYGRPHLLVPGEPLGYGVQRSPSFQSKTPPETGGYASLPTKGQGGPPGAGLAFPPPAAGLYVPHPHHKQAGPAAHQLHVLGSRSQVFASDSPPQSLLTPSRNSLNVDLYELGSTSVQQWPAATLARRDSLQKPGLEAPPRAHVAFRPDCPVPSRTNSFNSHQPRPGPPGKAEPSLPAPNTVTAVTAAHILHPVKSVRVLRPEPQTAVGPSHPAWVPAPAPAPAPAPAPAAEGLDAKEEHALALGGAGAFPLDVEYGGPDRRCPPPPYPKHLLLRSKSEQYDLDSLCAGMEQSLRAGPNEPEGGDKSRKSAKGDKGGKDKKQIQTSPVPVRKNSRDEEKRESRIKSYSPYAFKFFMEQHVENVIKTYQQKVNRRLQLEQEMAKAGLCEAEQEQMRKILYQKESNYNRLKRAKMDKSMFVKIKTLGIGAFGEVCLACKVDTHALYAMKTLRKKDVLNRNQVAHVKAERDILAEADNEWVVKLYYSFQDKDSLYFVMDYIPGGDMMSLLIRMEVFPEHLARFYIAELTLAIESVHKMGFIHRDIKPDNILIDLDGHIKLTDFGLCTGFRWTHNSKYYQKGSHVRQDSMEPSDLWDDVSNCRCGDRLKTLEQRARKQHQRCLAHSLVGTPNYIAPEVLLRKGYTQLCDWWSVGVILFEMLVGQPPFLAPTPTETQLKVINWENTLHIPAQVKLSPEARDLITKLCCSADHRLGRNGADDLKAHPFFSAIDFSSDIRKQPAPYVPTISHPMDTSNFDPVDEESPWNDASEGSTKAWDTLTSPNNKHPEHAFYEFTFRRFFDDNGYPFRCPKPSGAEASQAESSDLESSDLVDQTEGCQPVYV

[6] = target: Tyrosine-protein kinase JAK1 (Homo sapiens, UniProt P23458); assay: Selectivity interaction (ActivX KiNativ screen (ex vivo kinase selectivity in human PBMCs)) EUB0001619a JAK1; assay type: cell-based; settings: PBMC, at 1 µM
Sequence of Tyrosine-protein kinase JAK1 (P23458 whole entry): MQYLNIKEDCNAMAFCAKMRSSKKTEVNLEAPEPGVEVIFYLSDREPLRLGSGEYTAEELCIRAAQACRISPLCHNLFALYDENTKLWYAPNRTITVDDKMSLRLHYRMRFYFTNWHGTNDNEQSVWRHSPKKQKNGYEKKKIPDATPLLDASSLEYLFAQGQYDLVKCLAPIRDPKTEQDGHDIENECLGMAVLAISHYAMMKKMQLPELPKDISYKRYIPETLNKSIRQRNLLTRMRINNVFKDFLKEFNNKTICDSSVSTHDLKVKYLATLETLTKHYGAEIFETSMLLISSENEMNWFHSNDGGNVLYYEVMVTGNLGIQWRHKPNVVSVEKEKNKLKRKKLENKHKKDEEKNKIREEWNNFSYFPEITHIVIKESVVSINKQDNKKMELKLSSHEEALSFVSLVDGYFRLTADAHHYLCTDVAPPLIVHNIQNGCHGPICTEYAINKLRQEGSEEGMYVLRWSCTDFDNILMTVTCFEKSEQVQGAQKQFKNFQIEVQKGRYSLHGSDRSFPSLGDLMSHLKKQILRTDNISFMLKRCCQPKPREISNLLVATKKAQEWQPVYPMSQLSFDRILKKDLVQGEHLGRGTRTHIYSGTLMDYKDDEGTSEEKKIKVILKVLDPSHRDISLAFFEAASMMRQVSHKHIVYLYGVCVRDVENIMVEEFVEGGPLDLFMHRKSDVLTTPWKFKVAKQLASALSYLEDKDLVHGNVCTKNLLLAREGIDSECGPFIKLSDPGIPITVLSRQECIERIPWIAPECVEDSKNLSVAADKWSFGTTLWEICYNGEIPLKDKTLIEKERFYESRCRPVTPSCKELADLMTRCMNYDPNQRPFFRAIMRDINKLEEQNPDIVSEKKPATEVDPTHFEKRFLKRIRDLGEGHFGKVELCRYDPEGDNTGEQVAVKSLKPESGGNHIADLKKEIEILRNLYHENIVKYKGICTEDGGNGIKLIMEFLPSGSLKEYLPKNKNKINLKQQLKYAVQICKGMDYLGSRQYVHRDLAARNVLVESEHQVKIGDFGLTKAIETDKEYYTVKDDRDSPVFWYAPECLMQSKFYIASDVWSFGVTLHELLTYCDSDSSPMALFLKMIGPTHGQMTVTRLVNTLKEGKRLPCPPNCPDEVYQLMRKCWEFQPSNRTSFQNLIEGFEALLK

Sequence of 4-aminobutyrate aminotransferase, mitochondrial (P80404 whole entry): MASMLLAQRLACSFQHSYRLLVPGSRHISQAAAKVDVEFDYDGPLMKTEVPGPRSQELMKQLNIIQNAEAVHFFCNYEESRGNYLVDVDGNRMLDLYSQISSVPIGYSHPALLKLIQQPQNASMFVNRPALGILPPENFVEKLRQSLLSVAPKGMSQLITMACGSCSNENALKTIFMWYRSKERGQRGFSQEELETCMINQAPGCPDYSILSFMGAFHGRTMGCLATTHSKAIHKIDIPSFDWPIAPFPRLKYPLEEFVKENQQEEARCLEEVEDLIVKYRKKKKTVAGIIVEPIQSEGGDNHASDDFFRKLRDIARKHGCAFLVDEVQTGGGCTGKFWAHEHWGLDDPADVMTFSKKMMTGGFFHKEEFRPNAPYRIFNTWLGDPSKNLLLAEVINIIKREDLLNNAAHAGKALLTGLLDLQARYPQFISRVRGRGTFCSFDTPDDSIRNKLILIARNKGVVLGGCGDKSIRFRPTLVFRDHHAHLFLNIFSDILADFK
Sequence of Tyrosine-protein kinase ABL1 (Homo sapiens), P00519 [F317L] (P00519 whole entry F317L): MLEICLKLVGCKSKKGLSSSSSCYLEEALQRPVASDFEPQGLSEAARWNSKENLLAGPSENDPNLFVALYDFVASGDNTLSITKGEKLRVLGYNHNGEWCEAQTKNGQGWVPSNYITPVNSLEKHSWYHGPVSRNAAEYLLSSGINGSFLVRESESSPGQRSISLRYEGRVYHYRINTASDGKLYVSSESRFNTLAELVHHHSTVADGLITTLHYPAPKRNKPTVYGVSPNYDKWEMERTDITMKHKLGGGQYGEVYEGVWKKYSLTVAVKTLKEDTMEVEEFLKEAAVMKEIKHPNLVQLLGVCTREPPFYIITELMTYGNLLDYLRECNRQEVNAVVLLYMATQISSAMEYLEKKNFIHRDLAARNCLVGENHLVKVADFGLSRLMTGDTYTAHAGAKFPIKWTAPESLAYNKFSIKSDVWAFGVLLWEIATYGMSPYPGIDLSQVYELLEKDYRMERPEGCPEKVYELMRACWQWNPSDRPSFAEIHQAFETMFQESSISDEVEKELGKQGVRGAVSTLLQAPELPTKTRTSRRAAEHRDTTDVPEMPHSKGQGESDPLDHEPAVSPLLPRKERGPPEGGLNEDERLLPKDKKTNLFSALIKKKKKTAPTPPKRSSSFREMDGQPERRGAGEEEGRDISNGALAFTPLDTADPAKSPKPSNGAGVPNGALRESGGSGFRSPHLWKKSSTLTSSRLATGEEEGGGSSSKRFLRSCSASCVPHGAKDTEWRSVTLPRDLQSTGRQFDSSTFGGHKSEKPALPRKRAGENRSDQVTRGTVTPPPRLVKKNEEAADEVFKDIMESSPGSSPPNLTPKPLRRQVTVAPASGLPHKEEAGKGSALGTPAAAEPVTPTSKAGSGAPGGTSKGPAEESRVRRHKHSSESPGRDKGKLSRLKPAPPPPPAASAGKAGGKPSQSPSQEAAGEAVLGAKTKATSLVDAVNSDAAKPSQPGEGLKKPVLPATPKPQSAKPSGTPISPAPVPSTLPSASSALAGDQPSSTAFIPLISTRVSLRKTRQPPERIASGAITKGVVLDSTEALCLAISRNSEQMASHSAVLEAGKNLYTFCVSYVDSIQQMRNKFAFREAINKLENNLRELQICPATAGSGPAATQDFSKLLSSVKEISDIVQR

Compound: CNC(=O)Nc1ccc(-c2nc(N3CC4CCC(C3)O4)c3cnn(C4CCC5(CC4)OCCO5)c3n2)cc1
- % of control [1]: 96%

Compound: C=CC(=O)Nc1cc(-n2c(=O)ccc3cnc4ccc(-c5ccc(NS(C)(=O)=O)cc5)cc4c32)ccc1C
- % of control ([2]; at 1 µM): 100%
- % of control ([2]; at 10 µM): 100%

Compound: Nc1cnc(N2CCc3cc(S(=O)(=O)Nc4c(F)cc(Cl)cc4F)cc(N4CCCC4=O)c32)nc1 [TP-020n]
- % of inhibition [3]: -2.65%

Compound: COc1cc(N(C)c2ccnc3ccc(C(F)(F)F)cc23)cc(OC)c1OC
- % binding [4]: 100%

Compound: Cc1cc([C@@H](C)Nc2ccccc2C(=O)O)c2nc(N3CCOCC3)cc(=O)n2c1 [AZD-6482]
- % of control [5]: 63%

Compound: N#Cc1cccc(-c2c[nH]c3ncnc(N4CCOCC4)c23)c1
- % of inhibition [6]: -4%

— ChEMBL document CHEMBL5465560, “Selectivity Literature for EUbOPEN Chemogenomic Library” (2024)
